Test results reported in patent US20070026478A1, “Hemiasterlin affinity probes and their uses” (WYETH, priority 2002, published 2007).
Several values for one entry are separate records, joined by “and”; a condition that tells them apart may be missing. Equal values may be shown once. Where a name gives a salt, the structure may show the parent alone. Read-outs that look alike come from different tables or passages of the source. Marks after values point to notes of the source that are not given here.

Key:
[1] = target: microtubule associated protein (MAP)-rich bovine brain tubulin (bovine) (UniProt P81947)
[2] = target: microtubule associated protein (MAP)-rich bovine brain tubulin (bovine) (UniProt P81947); experiment: reversible binding to bovine brain tubulin (range given in Table 1)
[3] = target: α-tubulin of bovine brain tubulin (bovine) (UniProt P81947); experiment: 1 mM HTI-286 against 2.5 µM [3H]-Probe 1 photolabeling, fluorography
[4] = target: microtubule associated protein (MAP)-rich bovine brain tubulin (bovine) (UniProt P81947); experiment: 100 µM HTI-286 against 0.25 µM [3H]-Probe 1 photolabeling of tubulin, 37° C.
[5] = target: microtubule associated protein (MAP)-rich bovine brain tubulin (bovine) (UniProt P81947); experiment: 100 µM HTI-286 against 0.25 µM [3H]-Probe 1 photolabeling of tubulin, room temperature
[6] = target: microtubule associated protein (MAP)-rich bovine brain tubulin (bovine) (UniProt P81947); experiment: 100 µM HTI-286 against 0.25 µM [3H]-Probe 2 photolabeling of tubulin, room temperature
bovine brain tubulin [7] = target: T1, bovine brain tubulin (Bos taurus, UniProt P81947+Q6B856); experiment: Reversible binding affinity assay (tubulin fluorescence)
T1 construct: MAP-rich bovine brain tubulin (99% purity), Hela cell tubulin (90% purity); purchased Cytoskeleton (Denver, Colo.); host or cells: bovine brain
Procedure: The affinity of both HTI-286 and of non-radiolabled Probe 1 and Probe 2, to bovine brain tubulin was determined by previously published methods (Krishnamurthy et al., Biochem., submitted). Briefly, 5 mg/mL […] tubulin prepared in PEM buffer was pre-incubated with buffer or varying concentrations of test agents in individual quartz cuvettes. The intrinsic tryptophan fluorescence of tubulin (excitation at 560 nm and maximal emission at 580 nm) was measured after pre-incubation for 90 minutes. The change in fluorescence intensity at 580 nm in the presence of compound was fitted to a quadratic equation to obtain apparent dissociation constants (KD) of the test agents.

bovine MAP-rich tubulin = target: T2, bovine MAP-rich tubulin (Bos taurus, UniProt P81947+Q6B856); experiment: Tubulin polymerization assay in a cell-free system; format: biochemical; conditions: 0.3 μM compound
T2 construct: MAP-rich bovine brain tubulin (99% purity), Hela cell tubulin (90% purity); purchased Cytoskeleton (Denver, Colo.); host or cells: bovine brain
Procedure: In vitro tubulin polymerization assays were performed according to procedures that have been described elsewhere (Loganzo et al., Cancer Res. 2003, 63:1838-1845). Briefly, bovine MAP-rich tubulin (final concentration 1.5 mg/mL) was dissolved in cold PEM buffer containing 1 mM GTP (GPEM) and centrifuged at 12,000×g for 10 minutes at 4° C. The tubulin solution (100 μL/well) was added rapidly to wells of a low-volume, 96-well plate already containing duplicate aliquots (10 μL) of test compounds in GPEM. Final compound concentrations were 0.3 μM. Control wells contained the same final concentration of DMSO (0.3%). After initiation of the reaction, absorbance at 340 nm was measured every minute for 60 minutes at 24° C. using a SpectraMax Plus plate reader (Molecular Devices, Sunnyvale, Calif.). An increase in absorbance over time indicated an increase in turbidity resulting from tubulin polymerization.

KB cells = experiment: Cell proliferation assay in tissue culture (SRB); format: cell-based; conditions: Homo sapiens, KB, 72 h
Procedure: Cell proliferation studies were performed according to procedures described by Loganzo et al. (Cancer Res. 2003, 63:1838-1845). Briefly, KB cells were plated in 96-well plates in 100 μL media at densities pre-determined to produce 60-90% confluence at the time of analysis. Compounds, which were serially diluted into media as 2× stocks, were added to cells in duplicate. After 72 hours of incubation, cell survival was assayed by the SRB assay as described (Rabindran et al., C. Cancer Res. 1998, 58:5850-5858). IC50 values (i.e. the concentration of drug needed to inhibit cell growth by 50%) were used to evaluate drug potency.

bovine brain tubulin [8] = target: T1, bovine brain tubulin; experiment: Competition of [3H]-Probe 1 photolabeling of tubulin; format: binding; conditions: for inhibition of incorporation of radiolabeled Probe 1 into α-tubulin: 1 mM competitor, 37° C. incubation; for Probe 1 photolabeling of tubulin (% of no-competitor control): control (no competitor) = 100
Procedure: (§1) Alternatively, a cytosolic preparation of KB-3-1 cell lysates (50 μg) or KB-3-1 cells (40,000 cells) were used in the place of purified tubulin above. The supernatant of mechanically disrupted cells centrifuged at 100,000×g was used as a cytosolic preparation. K-3-1 cells were prepared by growing KB-3-1 cells in a 96-well plate and rinsing them with serum free medium.
If whole cells were used, Laemmli sample buffer was then added to lyse the cells.
Low grade SDS (Sigma, catalog No. L5750) was used in the running buffer, when needed, to allow separation of α and β-tubulin subunits. Gels were fixed, stained with Coomassie blue from BioRad (Hercules, Calif.) to ensure equal loading of protein, and sliced. […] Alternatively, gels were incubated with EN^3HANCE according to the manufacturer's instructions (Life Sciences Products, Inc.), washed, and dried prior to exposure of the gel to Biomax MX film from Kodak (Rochester, N.Y.) for fluorography.
After incubation for 30 minutes at 37° C., samples were irradiated with 360 nm UV light for 30 minutes and separated by SDS-PAGE. Gels were exposed to film using fluorographic techniques.
In particular, photolabeling experiments were performed as described in section 7.1.5 above, at both room temperature and at 37° C.

[9] = target: T3, tubulin in whole KB-3-1 cells (Homo sapiens, UniProt P07437+P68363); experiment: Probe 1 photolabeling in whole KB-3-1 cells; format: cell-based; conditions: 250 μM pre-incubation at 37° C. for 15 minutes
T3 construct: a cytosolic preparation of KB-3-1 cell lysates (50 μg) or KB-3-1 cells (40,000 cells) were used in the place of purified tubulin; endogenous in cells; host or cells: KB-3-1 cells (cytosolic supernatant at 100,000 x g, or whole cells)
Procedure: Alternatively, a cytosolic preparation of KB-3-1 cell lysates (50 μg) or KB-3-1 cells (40,000 cells) were used in the place of purified tubulin above. The supernatant of mechanically disrupted cells centrifuged at 100,000×g was used as a cytosolic preparation. K-3-1 cells were prepared by growing KB-3-1 cells in a 96-well plate and rinsing them with serum free medium. For experiments with whole cells, 250 μM HTI-286 was used as the competitor molecule during pre-incubation at 37° C. for 15 minutes.
Samples were irradiated at 360 nm with a Mineralight lamp (UVP, Upland, Calif.) for 30 minutes (for Probe 1), 2 hours (for whole cells with Probe 1), or 2 hours (for Probe 2) at 4° C., unless otherwise noted. Radiation of the benzophenone moiety at this wavelength effectively activates the photoprobe with minimal destruction of protein compared to the shorter wavelengths typically used for azido-containing photoprobes (see, Williams et al., Methods Enzymol. 1986, 126:667-682). If whole cells were used, Laemmli sample buffer was then added to lyse the cells.

tubulin [10] = target: T4, tubulin (Bos taurus, UniProt P81947+Q6B856); experiment: Competition of [3H]-Probe 2 photolabeling of tubulin; format: binding, bovine; conditions: 100 μM competitor, 2.5 μM tubulin, 0.25 μM [3H]-Probe 2, room temperature
T4 construct: MAP-rich bovine brain tubulin (99% purity), Hela cell tubulin (90% purity); purchased Cytoskeleton (Denver, Colo.); host or cells: bovine brain
Procedure: as §1
Competition binding experiments were performed as described in Section 7.1.5. […] Samples were then irradiated for 2 hours at 4° C. and evaluated by SDS-PAGE and fluorography.

α-tubulin = target: T5, α-tubulin (Bos taurus, UniProt P81947+Q6B856); experiment: Subtilisin digestion of tubulin after incubation with various compounds; format: biochemical, bovine; conditions: 50 μM drug, subtilisin up to 60 min at room temperature
T5 construct: MAP-rich bovine brain tubulin (99% purity), Hela cell tubulin (90% purity); purchased Cytoskeleton (Denver, Colo.); host or cells: bovine brain
Procedure: Tubulin (5 μg) was incubated with 50 μM drug at room temperature for 25 minutes and then digested under native conditions with subtilisin (0.05 μg) for 0, 5, 10, 15, 30 and 60 min at room temperature. Enzymatic digestion was stopped with 1 mM PMSF and samples were resolved by SDS-PAGE under conditions that allowed separation of α- and β-tubulin subunits. Gels were then fixed and stained with Coomassie blue.

tubulin [11] = target: T4, tubulin; experiment: Separation of polymerized and free tubulin by centrifugation; format: biochemical, bovine; conditions: 50 μM drug, centrifugation at 10,000 g and 100,000 g
Procedure: Tubulin (5 μg) was incubated with 50 μM drug at room temperature for 25 minutes and then centrifuged at either 10,000 g for 15 minutes in a tabletop microfuge or at 100,000 g for 15 minutes in an airfuge. The supernatant was carefully removed to a fresh tube to obtain free tubulin and the pellet was solubilized in SDS-PAGE sample buffer.

P-glycoprotein = P-glycoprotein (Homo sapiens, UniProt P08183); conditions: Loganzo et al., Cancer Res. 2003; cited from earlier work

## HTI-286 (N,β,β-trimethyl-L-phenylalanyl-N1-[(1S,2E)-3-carboxy-1-isopropylbut-2-enyl]-N1,3-dimethyl-L-valinamide trifluoroacetate) (peptide)
[1]
  tubulin polymerization (% inhibition): 87.5%
[2]
  Kd: 400 nM and 800 nM
[3]
  percent inhibition of Probe 1 incorporation: > 50%
[4]
  Inhibition (%) (labeling against control = 100): 47%
[5]
  Inhibition (%) (labeling against control = 100): 27%
[6]
  percent inhibition of Probe 2 labeling (so in the source): 45%

## CN[C@H](C(=O)N[C@H](C(=O)N(C)[C@H](/C=C(\C)C(=O)O)C(C)C)C(C)(C)C)C(C)(C)c1ccccc1 [HTI-286, N,β,β-trimethyl-L-phenylalany-N^1[(1S,2E)-3-carboxy-1-isopropylbut-2-enyl]-N^1,3-dimethyl-L-valinamide trifluoroacetate]
Bovine brain tubulin [7]; Table 1, binding to bovine brain tubulin, read-out: KD
  Kd: 400 to 800 nM
Bovine brain tubulin [7]; rhodamine-labeled tubulin, 90 minutes pre-incubation, read-out: apparent binding constant (KD), fluorescence method
  Kd: 600 nM
Bovine MAP-rich tubulin
  inhibition at 0.3 µM: 88%
Bovine MAP-rich tubulin; 0.3 µM
  tubulin polymerization (% inhibition): 87.5 ± 12.2 (n = 49) %
KB cells
  IC50: 0.96 nM
Bovine brain tubulin [8]; 0.25 μM radiolabeled Probe 1, 2.5 μM tubulin
  inhibition of incorporation of radiolabeled Probe 1 into α-tubulin: completely inhibits
Bovine brain tubulin [8]; 2.5 μM radiolabeled Probe 1, 2.5 μM tubulin
  inhibition of incorporation of radiolabeled Probe 1 into α-tubulin: more than 50%
Bovine brain tubulin [8]; 37° C.
  reduction of Probe 1 photolabeling of tubulin: about 50%
Bovine brain tubulin [8]; 37° C., 100 μM competitor
  Probe 1 photolabeling of tubulin (% of no-competitor control): 47^† %
Bovine brain tubulin [8]; Room Temp., 2.5 μM tubulin, 0.25 μM radiolabeled Probe 1, 100 μM competitor
  Probe 1 photolabeling of tubulin (% of no-competitor control): 27 ± 4%
Bovine brain tubulin [8]; room temperature, 2.5 μM tubulin, 0.25 μM radiolabeled Probe 1, read-out: IC50 for inhibition of Probe 1 photolabeling of tubulin
  IC50: 7000 nM
Bovine brain tubulin [8]; room temperature, 400-fold molar excess (100 μM) competitor, 2.5 μM tubulin, 0.25 μM radiolabeled Probe 1
  reduction of Probe 1 photolabeling of tubulin: approximately 72%
[9]
  competition of radiolabeled Probe 1 labeling in whole cells: eliminates the specific labeling of the 50 kDa tubulin band
Tubulin [10]
  inhibition of Probe 2 labeling of tubulin: 45%
α-tubulin
  protection of α-tubulin from subtilisin cleavage: unable to cleave α-tubulin even after 60 minutes
Tubulin [11]
  protein recovered in pellet fractions (tubulin aggregation): no significant protein was recovered
P-glycoprotein
  interaction with P-glycoprotein: weak interaction
